Data as given in patent publication US20250123282A1, “METHODS FOR EVALUATION AND TREATMENT OF TYROSINE KINASE INHIBITOR (TKI)-RESISTANT ACUTE MYELOID LEUKEMIA” (LOMA LINDA UNIVERSITY, priority 2021, published 2025).

What was measured:
MV4-11 blasts = experiment: GILT combined with MIF inhibitor or CXCR2 inhibitor on MV4-11 blasts in vitro (FACS); type: cell-based, human
Procedure: (§1) Whether targeting the MIF-CXCR2 signaling pathway would effectively treat AML blasts were investigated. First, the combination of GILT with ribosomal protein S19 (RPS19) on MV4-11 blasts was tested in vitro. RPS19, a MIF inhibitor, has been reported to suppress cisplatin-activated MIF-CD74-NFκB signaling pathway in acute kidney injury. […] The combination of 80 nM GILT with 50 uM SB225002, a CXCR2-inhibitor (CXCR2-I) on MV4-11 blasts in vitro were examined. […] The anti-leukemic effect of combining GILT with CXCR2-I on primary BMMNC ex vivo were examined. […] There may be alternative cytokine pathways compensating for the defect of MIF-CXCR2 pathways.
(§2) For MIF in vitro experiments, different doses of MIF were added to 1 ml of 1×10^6 MV4-11 cells or RAW264.7 cells for each experimental group in 24-well plates. Two days after the one dose treatment, cells were then collected for either analyses by FACS and qPCR. As combination agents to treat blasts in vitro or ex vivo, one dose of 80 nM GILT with one dose of different inhibitors were added to 1 ml of 1×10^6 MV4-11 cells or 1 ml of 0.5-1×10^6 primary AML BMMNC for each experimental group in 24-well plates. Dose-dependent experiments of CXCR2 inhibitor and NFκB inhibitor with or without 80 nM GILT were performed. […] Three days after the one dose treatment, cells were then collected for either analyses by FACS and qPCR.
(§3) Flow Cytometry (FACS). Cells were harvested and examined for the expression of cell surface biomarkers (CD) and intracellular proteins by multichromatic FACS as previously described. About 1×10^4˜10^6 cells in 100 μl FACS buffer (PBS containing 1% FBS and 0.05% sodium azide) were stained with various fluorescence-conjugated antibodies specific for the desired cell surface proteins at 4° C. for 30 min. The surface-stained cells were then fixed and permeabilized using the appropriate reagents (e.g. the BD Pharmingen Cytofix/Cytoperm buffer) and stained with different fluorescence-conjugated antibodies specific for the desired intracellular proteins at 4° C. for 2 hours in the permeabilizing buffer (e.g. the BD Perm/Wash buffer). Concentrations of the Abs were used per the manufacturers' recommendations. Finally, the cells were washed twice in the permeabilizing buffer and twice in the FACS buffer before being analyzed on the BD FACSAria II. Data was analyzed using the FlowJo software (Tree Star Inc., Ashland, OR).

primary AML BMMNC = experiment: Ex vivo combination treatment of primary AML BMMNC (FACS, imaging, qPCR); type: cell-based, human; conditions: primary BMMNC ex vivo (Patient #2 and #3); 80 nM GILT, 50 uM CXCR2-I
Procedure: as §1
The combination of 80 nM GILT and 50 uM BAY11-7821 (a NFκB-I) was tested as a novel therapeutic approach for AML.
Next, the anti-leukemic effect of the combination was examined on primary BMMNC from refractory AML patients (Patient #7, Table 4).
Human Samples. AML bone marrow (BM) mononuclear cells (BMMNC) (Patients #1-7, Table 4) were obtained from the City of Hope National Medical Center (COHNMC). All donor patients signed an informed consent form. Sample acquisition was approved by the Institutional Review Boards at the LLUMC and the COHNMC in accordance with an assurance filed with and approved by the Department of Health and Human Services, and it met all requirements of the Declaration of Helsinki.
as §2, §3
RNA Isolation and Real-Time Polymerase Chain Reaction (qPCR) analysis. MV4-11 and MOLM-14 cells were cultured with the presence of TKI drugs for 72 hours or re-plated 28 days after the treatment of TKI drugs. Cells were isolated for RNA isolation and qPCR analysis as previously described. Total RNA was isolated using the RNeasy Micro Kit (Qiagen) according to the manufacturer's instruction. First-strand cDNA was synthesized using the SuperScript III Reverse Transcriptase (Invitrogen; Life Technologies). With an Applied Biosystems 7900HT Real-Time PCR machine, qPCR was performed and analyzed using known primers for the specific markers. The PCR conditions were 10 minutes at 95° C. followed by 40 cycles of 10 seconds at 95° C. and 15 seconds at 60° C. The relative expression level of a gene was determined using the ΔΔCt method and normalized to GAPDH.

MV4-11 = conditions: 100 nM; cited from earlier work
MV4-11 cells = experiment: FACS time course of CD44+pBAD+ and Ki67+CD33+CD44+ populations in TKI-treated MV4-11; type: cell-based, human
Text: To follow the cell fate of TKI-treated MV4-11 and MOLM-14, culturing of blasts were continued by performing medium change every 2-3 days. […] The BAD protein is a pro-apoptotic member of the BCL-2 gene family, which is involved in initiating apoptosis. Dephosphorylated BAD is pro-apoptotic by binding BCL-2 and inactivating BCL-2, while phosphorylated BAD (pBAD) is anti-apoptotic by leaving BCL-2 free to inhibit BAX-triggered apoptosis.
Small Molecular Inhibitors and in vitro & ex vivo Treatment. […] The dose of 80 nM for the four TKIs was selected based on their dose-dependent cytotoxicity in previous reports. […] Both GILT and QUIZ were reported to start to suppress the tumorigenic clustering and c-Kit at the dose of 80 nM. […] The combination of 5 μM 5-Azacitidine (AZA) and 80 nM 1α,25-Dihydroxyvitamin D3 (VD3) was added to the experimental group similar to the previous report. As combination agents to treat blasts in vitro, one dose of 80 nM GILT with one dose of either 100 nM Venetoclax (BCL2 inhibitor), 10 μM (R)-Lisofylline (STAT4 inhibitor), 100 nM AZD1208 (PIM inhibitor), 500 nM PF-06826647 (TYK2 inhibitor), or 500 nM AT9283 (JAK2/3 inhibitor) were added to 1 ml of 1×10^6 cells for each experimental group in 24 well plates. Three days after the one dose treatment, cells were then collected for either analyses by FACS and qPCR, or re-plated into 24 well plates for continued culture. At different time points, re-plated cells were collected for analyses by FACS and qPCR. Medium change was performed every 2-3 days.
as §3

[1] = MV4-11, 10 days after TKI treatment
[2] = MV4-11, 20 days after TKI treatment
[3] = MV4-11, 28 days after TKI treatment

Row | Compound | percentage of Ki67+CD44+ blasts (MV4-11 blasts; MV4-11, 80 nM GILT, 50 uM SB225002, 3 days) [%] | most effective dose on MV4-11 based on the FACS analyses (MV4-11 blasts; dose-dependent experiments with or without 80 nM GILT) [µM] | percentage of Ki67+CD13+ blasts (primary AML BMMNC) [%] | percentage of viable CD33+CD13+ primary blasts (primary AML BMMNC) [%] | reduction of viable MV4-11 (MV4-11) [%] | population of viable CD44+pBAD+ cells (MV4-11 cells; [1]) [%] | population of viable Ki67+CD33+CD44+ cells (MV4-11 cells; [1]) [%] | population of viable CD44+pBAD+ cells (MV4-11 cells; [2]) [%] | population of viable Ki67+CD33+CD44+ cells (MV4-11 cells; [2]) [%] | population of viable CD44+pBAD+ cells (MV4-11 cells; [3]) [%] | population of viable Ki67+CD33+CD44+ cells (MV4-11 cells; [3]) [%]
1 | O=C(Nc1ccc([N+](=O)[O-])cc1O)Nc1ccccc1Br [CXCR2-I, SB225002] | 5.7 | 50 | 14.3 | 3.11 |  |  |  |  |  |  | 
2 | CO[C@@H]1[C@H](N(C)C(=O)c2ccccc2)C[C@H]2O[C@]1(C)n1c3ccccc3c3c4c(c5c6ccccc6n2c5c31)C(=O)NC4 [MIDO, Midostaurin] |  |  |  |  | 60 | 0.2 | 2.54 | 0.43 | 1.41 | 1.23 | 2.54
